Source: US20240360289A1, “EPOXY RESIN FOAM, CARBON DIOXIDE ABSORBENT, METHOD FOR PRODUCING EPOXY RESIN FOAM, MULTILAYER STRUCTURE AND METHOD FOR PRODUCING SAME” (MITSUBISHI GAS CHEMICAL COMPANY, INC., priority 2021, published 2024)

experiment: Maximum carbon dioxide release temperature of amine compound (DSC after CO2 absorption); format: physicochemical; settings: amine compound after 24 hours in air at 23° C. and 50% RH; DSC 23 to 250° C., 10° C./minute, nitrogen
Description: (Maximum Carbon Dioxide (CO2) Release Temperature of Amine Compound)
A carbon dioxide detector and a Petri dish were placed in an openable desiccator (inner dimension: 370 mm×260 mm×272 mm). Subsequently the amine compound (5 mmol) was added to the Petri dish in the desiccator and the door was immediately closed to leave the amine compound to stand in the desiccator in an air environment at 23° C. and 50% RH for 24 hours. The initial concentration of carbon dioxide was adjusted to about 400 ppm.
Then the amine compound was removed from the desiccator to give an amine compound with carbon dioxide absorbed. The maximum carbon dioxide release temperature of the amine compound with carbon dioxide absorbed was measured by subjecting the amine compound to DSC as described below. First, differential scanning calorimetry of the amine compound was performed under conditions of a temperature range of 23 to 250° C., a heating rate of 10° C./minute and a nitrogen atmosphere using a differential thermogravimeter (product name DTG-60 made by Shimadzu Corporation). The temperature at which the amount of heat absorbed due to the desorption of carbon dioxide was the maximum was calculated from the DSC curve obtained, and the temperature was determined as the maximum carbon dioxide release temperature of the amine compound.

| Compound | Maximum carbon dioxide release temperature |
| --- | --- |
| CC1(C)CC(N)CC(C)(CN)C1 (centres unmarked) [IPDA, isophoronediamine] | 114.4 °C |
| NCCN1CCNCC1 [AEP, N-(2-aminoethyl) piperazine] | 81.9 °C |
| NCC1CCCC(CN)C1 (centres unmarked) [1,3-BAC, 1,3-bis(aminomethyl)cyclohexane] | 125.7 °C |
| NC1CCC(CC2CCC(N)CC2)CC1 (centres unmarked) [PACM, 4,4′-methylenebis(cyclohexylamine), reference compound] | 53 °C |
| NCc1cccc(CN)c1 [MXDA, metaxylylenediamine] | 135.5 °C |
